# Test results reported in patent publication US8394832B2, “Methods and compositions using immunomodulatory compounds for the treatment of immunodeficiency disorders” (Celgene Corporation, priority 2004, dated 2013).
# Key:
# Type in all cases: cell-based, human
# TLR 9 = TLR 9 expression by FACS array in B cells; conditions: 0.0006-60 μM, in combination with other stimuli, particularly IgM, 3 days (FIGS. 8A-8D)
# Experimental: (§1) Human buffy coat (50 ml) was diluted with 50 ml sterile PBS (Ca^++, Mg^++ free), and mixed gently. A 25 ml aliquot of diluted buffy coat was transferred to each 50 ml centrifuge tube, and Histopaque-1077 (14 ml, #1077-1, Sigma) was gently layered into the bottom of the tube. The sample was centrifuged at 2,000 rpm for 30 min at room temperature. The interface containing mononuclear cells was transferred into 50 ml centrifuge tube, and washed once with PBS (1200 rpm, 5 min). The supernatant was discarded. Cell pellet was resuspended in Miltenyi buffer. Anti-CD19^+ microbeads were added to the suspension (10^7 cells in 80 μl of buffer, 20 μl antibody beads for 10^7 cells) and incubated for 15 min at 4° C. Cell pellet was washed once and resuspended in 1 ml Miltenyi buffer. The cell suspension was added to the magnetic column, washed with 10 ml Miltenyi buffer in the column. CD19^+ cells are released by 1 ml Miltenyi Buffer without magnetic field. CD19^+ cells were washed twice with RPMI complete medium. B cells (2×10^5) were plated in 96 well plate.
# B cells were plated in 96 well plate and treated with 1,3-dioxo-(2,6-dioxopiperidin-3-yl)-4-aminoisoindoline at concentrations of 60 μM, 6 μM, 0.6 μM, 0.06 μM, 0.006 μM and 0.0006 μM in presence of stimuli for 3 days. […] B cells were resuspended in 150 μl PBS containing 1% BSA and read in FACS array instrument (BD Bioscience).
# STAT6 = assay: Western blotting of phospho-STAT6 in IL-4 stimulated CD-19 B cells; conditions: B cells pretreated 30 minutes, then 100 ng/ml IL-4 for 30 minutes (FIG. 11D)
# Experimental: CD-19 B cells (2×10^6/ml) were pretreated with 1,3-dioxo-(2,6-dioxopiperidin-3-yl)-4-aminoisoindoline at 10 μM and 1 μM for 30 minutes. IL-4 (100 ng/ml) was added to cell suspension for 30 minutes, and the cell pellet was washed once by PBS and lysed with 50 μl of the sample buffer. Cell lysates were heated at 100° C. for 5 minutes, and 20 μl of cell lysates were loaded to 4-20% Tris-glycine SDS-PAGE (Invitrogen). The transferred membrane was blotted with 1: 1000 anti-phopho STAT6 antibody (Cell signaling) for overnight at 4° C. prior to secondary HRP conjugated anti rabbit antibody. The signal of the membrane was developed by ECL kit, following the manufacturer's instructions.
# Because activation of STAT6 is important in IL-4 induced IgE and IgG1 class switching, whether immunomodulatory compounds could inhibit phosphorylation of STAT6 was investigated. B cells were pretreated with 1,3-dioxo-(2,6-dioxopiperidin-3-yl)-4-aminoisoindoline for 30 minutes, then stimulated with 100 ng/ml of IL-4 for 30 minutes. The activation of STAT6 was assessed by anti-phospho-STAT6 (Tyr 641).
# CD80 = assay: FACS analysis of CD80 expression on B cells; conditions: normal B cells, 1 μM
# Experimental: as §1
# B cells were treated with 1 μM 1,3-dioxo-(2,6-dioxopiperidin-3-yl)-4-aminoisoindoline in presence of LPS; CD40 ligand and IL-4; or BAFF for 3 days. The suspension of B cells was washed by PBS once, and incubated with FITC conjugated anti human CD40, PE conjugated anti human CD80, or PerCP-Cy5.5 conjugated anti human HLA-DR for 30 min in the dark. […]
# TNFα = TNFα ELISA of treated B cells; conditions: activated CD19+ cells (FIG. 4)
# Experimental: as §1, with “plate. […]” for “plate.”
# TNFα levels in 1,3-dioxo-(2,6-dioxopiperidin-3-yl)-4-aminoisoindoline or 1-oxo-(2,6-dioxopiperidin-3-yl)-4-aminoisoindoline treated B cells were determined using TNFα ELISA.
# CD69 = assay: FACS analysis of CD69 expression in CD19+ B cells
# Experimental: as §1
# B cells were treated with 1,3-dioxo-(2,6-dioxopiperidin-3-yl)-4-aminoisoindoline (FIG. 3A) or 1-oxo-(2,6-dioxopiperidin-3-yl)-4-aminoisoindoline (FIG. 3B) in presence of anti IgM, anti CD40 and IL-4 for 3 days. The suspension of B cells was washed by PBS once, and incubated with FITC conjugated anti human CD69 for 30 min in the dark. B cells were subject to FACS analysis using flow cytometer (EPICS XL-MCL, Beckman Coulter Company).
# To assess whether the effects of immunomodulatory compounds on IL-4 signaling impact on IL-4 mediated B cell activation, FACS array of immediate early expression marker CD69 expression at triplicates and six doses was examined using 1,3-dioxo-(2,6dioxopiperidin-3-yl)-4-aminoisoindoline or 1-oxo-(2,6-dioxopiperidin-3-yl)-4-aminoisoindoline. […] Thus, it is clear that immunomodulatory compounds have no impact on this process.
# IL-6 = assay: Measurement of cytokine IL-6 by Luminex in B cells
# Experimental: as §1
# B cells were treated with 1,3-dioxo-(2,6-dioxopiperidin-3-yl)-4-aminoisoindoline at 60 μM, 6 μM, 0.6 μM, 0.06 μM, 0.006 μM and 0.0006 μM in presence of anti IgM, anti CD40 and IL-4 for 3 days. Supernatant (25 μl) was collected and incubated with 25 μl anti IL-6 beads for about 1 hour. […] The plate was read on Bio-Plex instrument (Bio-Rad).
smiles,measurement,setting,value
"Nc1cccc2c1C(=O)N(C1CCC(=O)NC1=O)C2=O (stereo not drawn) [1,3-dioxo-(2,6-dioxopiperidin-3-yl)-4-aminoisoindoline]",TLR 9 expression,TLR 9,increase
same,phosphorylation of STAT6 (Tyr 641),STAT6,block phosphorylation of STAT6
same,number of B cells expressing CD80,"CD80; CD40 ligand and IL-4, 3 days (FIG. 1B)",increased
same,CD80 expression,"CD80; in the presence of CD40 ligand and IL-4, 3 days (FIG. 1A)",increased
same,TNFα production in B cells,TNFα,dose dependently enhance
same,CD69 expression,"CD69; CD19+ B cells treated with anti human IgM, anti human CD40 and IL-4, 3 days (FIGS. 3A, 3B)",dose-dependently enhanced
same,CD69 expression,"CD69; IL-4 stimulated CD19+ B cells, triplicates, six doses (FIGS. 10A and B)",neither immunomodulatory compound inhibited
same,IL-6 expression,IL-6; compound alone (FIG. 5A),did not enhance
same,IL-6 expression,"IL-6; in combination with anti IgM, anti CD40 and IL-4, 3 days, 0.0006-60 μM (FIG. 5B)",enhanced
